{"source": "paper PMC11897554", "about": "“Pharmacokinetic effect of disease severity and use of extracorporeal membrane oxygenation in critically ill Asian patients receiving vancomycin” (Frontiers in Pharmacology, 2025)", "key": {"[1]": {"assay": "Population pharmacokinetic analysis (nonlinear mixed-effects, one-compartment) of vancomycin therapeutic drug monitoring data in critically ill patients", "excerpt": "This retrospective study used medical records of critically ill patients hospitalized in Kaohsiung Veterans General Hospital, Taiwan, from 1 January 2014, to 31 December 2016. The study was approved by the Kaohsiung Veteran General Hospital Institutional Review Board (certificate number VGHKS18-CT9-12). A waiver of informed consent was granted as the data were collected retrospectively from medical records. The identity of the study subjects was masked through the use of a study identifier. Data were de-identified. […] Patients were excluded if vancomycin concentrations in blood could not be detected or if there were incomplete data on the vancomycin regimen. As per the study protocol the blood samples were collected >1 h after the end of dose administration (peak concentration) and within 30 min before the next dose (trough concentration). Trough and peak concentrations obtained after administering at least four equal repeated doses were referred to as the steady-state concentrations.\nData abstracted included height, weight, age, principal diagnosis at admission, whether an open-heart surgery had been performed, serum creatinine concentrations, whether extracorporeal membrane oxygenation (ECMO), and vancomycin dosage, frequency, route, speed, and administration time indications for the use of vancomycin. The estimated glomerular filtration rate (eGFR) was calculated using the bedside Schwartz equation from serum creatinine values ([Schwartz et al., 2009]). There were nine distinct diagnostic categories at admission. To improve simplicity and interpretability, diagnoses were grouped into two major categories based on clinical differences, depending on the severity of the bacterial infection for which vancomycin was used. The first category (severe infections) corresponded to people diagnosed with pneumonia/bacteremia/osteomyelitis/meningitis/deep tissue infection, and the second category (mild infections) included people diagnosed with cellulitis/surgical prevention/neutropenic fever/others.\nVancomycin plasma concentrations were transformed into their natural logarithms. The corresponding concentration versus time plot was placed on a logarithmic scale for all the subjects to address normality. The concentration-time profiles were characterized using nonlinear mixed-effects modeling using Phoenix NLME (Certara Inc. version 8.2). Concentrations below the lower limit of detection (LLOD) were excluded from the analysis. Concentrations below the lower limit of quantitation (LLOQ) were divided by two to obtain an unbiased conservative estimate of the true concentration. One- and two-compartment models with first-order elimination with additive, proportional, and combined error models were considered for the base model. The between-subject variability was normally distributed with a mean equal to 0 and variance equal to ω^2. The allometric scaling exponent for clearance and volume of distribution were fixed at 0.75 and 1, respectively ([Holford, 1996]; [Chung et al., 2021]). The models were run with the FOCE-ELS algorithm and simple run mode. […] Weight was applied a priori to the base model. A sensitivity analysis was performed after the final structural model selection, and the initial estimates were changed to evaluate the robustness of the model.\nThe clinically relevant categorical covariates that were investigated included the major diagnosis category/infection severity, extracorporeal membrane oxygenation (ECMO) status, and surgery status. Covariate investigation was conducted in stepwise covariate search run mode in Phoenix (Phoenix®, version 8.2, Certara, Princeton, NJ) using stepwise forward inclusion followed by stepwise backward elimination. The models were assessed by a reduction or increase in the objective function value (OFV), equal to −2*log likelihood. During forward selection, any covariate that reduced the OFV by > 3.84 [p < 0.05, χ2 distribution with 1 degree of freedom (df)] was significant."}, "[2]": {"settings": "within 24 h; ref Shimamoto et al., 2021; Le et al., 2013; cited from earlier work"}, "[3]": {"settings": "ref Chung et al., 2021, Matusik et al., 2022, cited from earlier work", "description": "In pediatric patients, vancomycin pharmacokinetics can be highly variable due to age-related differences in drug absorption, distribution, metabolism, and elimination. Population pharmacokinetic models provide quantitative and semi-quantitative frameworks for optimizing dosing regimens. They achieve this by identifying sources of variability, by determining factors that influence the pharmacokinetic behavior of the drug, and quantifying the magnitude of unexplained variability ([Stockmann et al., 2013])."}, "[4]": {"settings": "calculated from final model, median weight, ηCl = 0"}, "[5]": {"settings": "non-parametric bootstrap of final model, 1,000 datasets"}, "[6]": {"settings": "non-parametric bootstrap, 1,000 datasets"}}}
{"smiles": "CN[C@H](CC(C)C)C(=O)N[C@H]1C(=O)N[C@@H](CC(N)=O)C(=O)N[C@H]2C(=O)N[C@H]3C(=O)N[C@H](C(=O)N[C@H](C(=O)O)c4cc(O)cc(O)c4-c4cc3ccc4O)[C@H](O)c3ccc(c(Cl)c3)Oc3cc2cc(c3O[C@@H]2O[C@H](CO)[C@@H](O)[C@H](O)[C@H]2O[C@H]2C[C@](C)(N)[C@H](O)[C@H](C)O2)Oc2ccc(cc2Cl)[C@H]1O", "note": "[vancomycin]", "values": [{"measurement": "Clearance value, patients with severe infections", "setting": "[1]; DIAG = 0 (pneumonia/bacteremia/osteomyelitis/meningitis/deep tissue infection), calculated from final model, median weight (12.6 kg), ηCl = 0", "value": 1.03, "unit": "L/h"}, {"measurement": "Clearance value, patients with mild infections", "setting": "[1]; DIAG = 1 (cellulitis/surgical prevention/neutropenic fever/others), calculated from final model, median weight (12.6 kg), ηCl = 0", "value": 0.63, "unit": "L/h"}, {"measurement": "Clearance value, patients without ECMO", "setting": "[1]; ECMO = 0, calculated from final model for an individual of median weight (12.6 kg), ηCl = 0", "value": 1.03, "unit": "L/h"}, {"measurement": "% difference (reduction) in clearance, ECMO versus non-ECMO patients", "setting": "[1]; [4]", "value": "∼56%"}, {"measurement": "% difference (reduction) in clearance, mild versus severe infections", "setting": "[1]; [4]", "value": "∼39%"}, {"measurement": "tvCL, bootstrap median", "setting": "[1]; [5]", "value": 1.01, "unit": "L/h"}, {"measurement": "tvV, bootstrap median", "setting": "[1]; [5]", "value": 11.85, "unit": "L"}, {"measurement": "dCldDiag, bootstrap median", "setting": "[1]; [6]", "value": "−0.48"}, {"measurement": "dCldECMO, bootstrap median", "setting": "[1]; [6]", "value": "−0.79"}, {"measurement": "tvV, typical value of volume of distribution, final model estimate", "setting": "[1]; one-compartment model, first-order elimination, proportional error, Phoenix NLME FOCE-ELS, IV infusion, 90 critically ill Asian patients, 263 samples, typical individual 12.6 kg, allometric exponent 1 fixed", "value": 11.61, "unit": "L"}, {"measurement": "administered dose excreted unchanged", "setting": "[2]", "value": "approximately 90%"}, {"measurement": "half-life, HDF", "setting": "[3]; dialysis mode hemodiafiltration", "value": 2.1, "unit": "h"}, {"measurement": "half-life, HD", "setting": "[3]; dialysis mode hemodialysis", "value": 3.5, "unit": "h"}]}
